These results are taken from patent publication EP2226073A1, “Topical pharmaceutical composition comprising an antiseptic and arginine for wound healing” (EURO-CELTIQUE S.A., priority 2009, dated 2010).

In the data set the test system is Human ciliated epithelium cells.

Description: Human ciliated epithelium cells were analyzed by an in vitro method which allows for determining ciliary activity or ciliary vibration. The corresponding cells were exposed and incubated with 100 µl test substance at a temperature of 37°C. After an incubation period of 5 min ciliary vibration was measured.
By using this in vitro method, a nutrient solution (Dulbeco) as a standard, a 0.2% chlorohexidine solution (a common antiseptic agent), conventional polyvidone iodine solutions (Betaisodona) of different concentrations (5.0%, 2.5%, and 1.25% PVP-iodine), and a liposomal solution containing 4.5% PVP-iodine were tested.

For `[H]/N=C(\N/C(=N/[H])NCCCCCCNC(=N)NC(=N)Nc1ccc(Cl)cc1)Nc1ccc(Cl)cc1` [chlorohexidine], the ciliary vibration entry is on record as “decrease of the measured ciliary vibration”.
